# From PMC6467890, “A semi-synthetic neolignan derivative from dihydrodieugenol B selectively affects the bioenergetic system of Leishmania infantum and inhibits cell division” (Scientific Reports, 2019)
# Read-outs that look alike come from different tables or passages of the source.
# Tests used:
# [1] = tested on: L. (L.) infantum promastigotes; assay: Promastigote viability, MTT colorimetric method; type: cell-based, Leishmania (L.) infantum
# Method: Promastigotes (1 × 10^6 parasites/well) in 96-well plates were incubated with the four compounds (150 to 1.2 μM) for 96 h at 24 °C. The parasite viability was determined using the MTT colorimetric method. Miltefosine was used as standard, with untreated cells as a negative control. A parallel promastigote activity assay was performed for 2 h with compound 2 (200 to 1.56 μM) for mechanism of action studies. After this period of incubation with compound 2, the parasites were washed twice with M-199 medium and the parasite viability was determined using the MTT colorimetric method for 4 h incubation at 24 °C.
# [2] = tested on: intracellular amastigotes of L. (L.) infantum; assay: Intracellular amastigotes in peritoneal macrophages, light microscopy counting (infection index); type: cell-based, Leishmania (L.) infantum; conditions: for IC50: intracellular amastigotes in peritoneal macrophages, 96 h, read-out: IC50 (µM) ± SD Amastigote
# Method: Peritoneal macrophages (1 × 10^5 cell/well) in 16-well slide chambers (NUNC) were infected with amastigotes at a ratio of 10:1 (amastigotes/macrophage) and treated with compounds (60 to 10 µM) for 96 h. Stained slides (Giemsa) were counted using light microscopy and IC50 determined by the infection index. Miltefosine was used as standard and untreated cells as a negative control.
# [3] = tested on: Fibroblast NCTC cells clone 929; assay: Mammalian cytotoxicity, MTT colorimetric method; type: cell-based, murine; conditions: up to 200 μM, read-out: CC50 (µM) ± SD NCTC
# Method: (§1) Fibroblast NCTC cells clone 929 (6 × 10^4 cells/well) in 96-well plates were incubated with the compounds up to 200 μM in a 5% CO2 humidified incubator at 37 °C. CC50 was determined by the MTT colorimetric method. The selectivity index was determined using the following equation: CC50 against NCTC cells/IC50 against amastigotes
# [4] = tested on: L. (L.) infantum promastigotes; type: cell-based, Leishmania (L.) infantum
# Method: Promastigotes (2 × 10^6 parasites/well) were incubated in 96-well black polystyrene microplates with 1 µM of Sytox Green (Molecular Probes) in HANKS’ balanced salt solution (Sigma-Aldrich) supplemented with 10 mM D-Glucose (Sigma-Aldrich, HBSS + Glu) at 24 °C for 15 min in the dark[45]. Compound 2 (190 µM) was added and the fluorescence was measured every 20 min for up to 2 h, using a fluorimetric microplate reader (FilterMax F5 Multi-Mode, Molecular Devices) with excitation and emission wavelengths of 485 and 520 nm, respectively. Maximum permeabilization was obtained using 0.5% Triton X-100 and untreated parasites were used as negative control.
# [5] = tested on: L. (L.) infantum promastigotes; assay: Plasma membrane electric potential, DiSBAC2(3), flow cytometry; type: cell-based, Leishmania (L.) infantum
# Method: Promastigotes (2 × 10^6 parasites/well) were treated with compound 2 (190 µM) for 1 and 2 h in HBSS + Glu at 24 °C. DiSBAC2(3) (Molecular Probes) were added (0.2 µM) and the parasites were incubated by 5 min[47]. The fluorescence was measure using Attune NxT flow cytometer (Thermo Fisher Scientific) with excitation and emission wavelengths of 488 and 574 nm (BL-2), respectively. Raloxifene (60 μM) was used as positive control and untreated parasites were used as negative control. Unstained parasites were used to set background fluorescence.
# [6] = tested on: L. (L.) infantum promastigotes; assay: Mitochondrial membrane electric potential, JC-1, flow cytometry; type: cell-based, Leishmania (L.) infantum; conditions: 190 µM, 1 and 2 h, compared to untreated parasites
# Method: Promastigotes (2 × 10^6 parasites/well) were treated for 1 and 2 h with compound 2 (190 µM) in HBSS + Glu at 24 °C. JC-1 dye (Molecular Probes) was added at a final concentration of 10 μM. The parasites were incubated in the dark for 20 min and washed to eliminate the non-internalized dye. The fluorescence was measure using Attune NxT flow cytometer (Thermo Fisher Scientific) with excitation filter wavelengths of 488 nm and emission of 530 (BL-1) and 574 nm (BL-2). The mitochondrial membrane potential was determined using BL-2/BL-1 ratio[49]. Maximum depolarization was obtained in the presence of CCCP (100 μM) and untreated parasites were used as negative control. Unstained parasites were used to set background fluorescence.
# [7] = tested on: L. (L.) infantum promastigotes; assay: ATP levels, bioluminescence assay; type: cell-based, Leishmania (L.) infantum; conditions: 190 µM, 1 and 2 h, compared to untreated parasites
# Method: Promastigotes (2 × 10^6 parasites/well) were treated with compound 2 (190 µM) in HBSS + Glu for 1 and 2 h at 24 °C. Untreated parasites and treated with CCCP (25 µM) were included as negative and positive controls, respectively. The promastigotes were lysed using 0.5% Triton X-100 and mixed with a standard reaction buffer (ATP Determination Kit, Molecular Probes) containing DTT (1 mM), luciferin (0.5 mM) and firefly luciferase (1.25 µg/mL)[50]. Luminescence intensity was measured using a luminometer (FilterMax F5 Multi-Mode, Molecular Devices) and the amount of ATP was calculated from an ATP standard curve.
# [8] = tested on: L. (L.) infantum promastigotes; assay: Intracellular calcium levels, Fura-2 AM; type: cell-based, Leishmania (L.) infantum; conditions: 190 µM, 5, 20, 60 and 120 min
# Method: Promastigotes (2 × 10^6 parasites/well) were pretreated with 5 µM of Fura-2 AM (Molecular Probes) in PBS 1x, for 40 min at 24 °C in the dark. The parasites were washed and treated with compound 2 (190 µM). The fluorescence was measured at 5, 20, 60 and 120 min, using a fluorimetric microplate reader (FilterMax F5 Multi-Mode, Molecular Devices) with excitation and emission wavelengths of 360 and 500 nm, respectively. Maximum levels of calcium were obtained using 0.5% Triton X-100 and untreated parasites were used as negative control.
# [9] = tested on: L. (L.) infantum promastigotes; assay: Cell cycle analysis, propidium iodide, flow cytometry; type: cell-based, Leishmania (L.) infantum; conditions: 24 h; compound 2 190 µM, miltefosine 25 μM
# Method: Promastigotes (2 × 10^6 parasites/well) in mid-log phase were incubated with compound 2 (190 µM) in M-199 medium for 24 h at 24 °C. Parasites were washed and fixed in 70% ice-cold ethanol overnight at −20 °C. After a further wash with PBS 1x, the promastigotes were ressuspended in propidium iodide (10 µg/mL, Molecular Probes) and RNase A (20 µg/mL, Molecular Probes) for 30 min in the dark at room temperature. The fluorescence intensity was analyses using Attune NxT flow cytometer (Thermo Fisher Scientific) with excitation filter wavelengths of 488 nm and emission of 574 nm (BL-2)[47]. Maximum change in the cell cycle was obtained in the presence of miltefosine (25 μM) and untreated parasites were used as negative control. Unstained parasites were used to set background fluorescence.
# [10] = tested on: L. (L.) infantum promastigotes; assay: Ultrastructural analysis by transmission electron microscopy; type: cell-based, Leishmania (L.) infantum; parameters: dose or concentration left out as unconfirmed; conditions: (figure legend), 4 and 6 h
# Method: […] Then, the parasites were washed, fixed in 2.5% glutaraldehyde in 0.1 M sodium cacodylate buffer (pH 7.3), postfixed in 1% osmium tetroxide. The parasites were dehydrated with acetone series and embedded in Epon resin. Ultrathin sections were stained with uranyl acetate and lead citrate. The material was analyzed under transmission electron microscopy (JEOL JEM-1011). Untreated parasites were used as negative control.
# [11] = tested on: bone marrow-derived macrophages, uninfected and infected with L. (L.) infantum; assay: Cytokine level quantification, CBA Mouse Inflammation Kit, flow cytometry; type: cell-based, BALB/c mice; conditions: 48 h
# Method: Bone marrow-derived macrophages (5 × 10^5 cells/well) in 24-well plates were infected with amastigotes at a ratio of 10:1 (amastigotes/macrophage) and kept at 37 °C in a 5% CO2 humidified incubator. Cell were treated with compound 2 (60 to 7.5 µM) for 48 h and the supernatant was collected and cytokine quantification was achieved using the CBA Mouse Inflammation Kit (BD Biosciences) according to the manufacturer’s instructions. The fluorescence was measured using BD LSRFortessa flow cytometer (BD Biosciences) and the data analysis was performed using the software FCAP Array (v.3). LPS (50 μg/mL) was used as positive control and untreated parasites were used as negative control.
# [12] = tested on: Trypanosoma cruzi parasites; parameters: method as in PMID 28864277; conditions: cited from earlier work
# [13] = tested on: Trypanosoma cruzi parasites; conditions: cited from earlier work
# [14] = Mammalian cytotoxicity, MTT colorimetric method; type: cell-based, murine; conditions: mouse, NCTC clone 929 fibroblast cells, up to 200 μM, read-out: CC50 (µM) ± SD NCTC
# Method: as §1
# Leishmania = conditions: cited from earlier work
# L. (L.) amazonensis = tested on: L. (L.) amazonensis; parameters: method as in PMID 20064628; conditions: cited from earlier work
# [15] = 96 h at 24 °C, MTT, read-out: IC50 (µM) ± SD Promastigote
compound,measurement,setting,value
"1-Propyl-3-(1′-propyl-3′-methoxyphenoxy)-4,5-dimethoxybenzene [Compound 3]",IC50,[1]; [15],29.6 ± 2.3 µM
same,IC50,[2],21.7 ± 1.9 µM
same,CC50,[3],57.7 ± 1.1 µM
1-Propyl-3-(1′-propyl-3′-methoxyphenoxy)-5-methoxy-4-benzoyloxybenzene [Compound 2],IC50,[1]; [15],105 ± 9.4 µM
same,IC50,"[1]; after 2 h of incubation, used for mechanism of action assays, read-out: second IC50 value against promastigotes",190 µM
same,amastigotes eliminated,[2]; at the highest tested concentration,100%
same,IC50,[2],6.1 ± 1.2 µM
same,CC50,[3],> 200 µM
same,plasma membrane permeability (Sytox Green fluorescence),[4],No changes in the fluorescence levels were observed
same,"plasma membrane electric potential (ΔΨp), DiSBAC2(3) fluorescence","[5]; 190 µM, 1 and 2 h, compared with untreated parasites",induced a significant (p < 0.0001) depolarization of the potential
same,"mitochondrial membrane electric potential (ΔΨm), JC-1 BL-2/BL-1 ratio",[6],induced a significant (p < 0.0001) depolarization of the mitochondrial membrane potential
same,ATP concentration,[7],dose-dependent decrease of ATP concentration
same,cytosolic Ca2+ levels (Fura-2 AM),[8],"induced a fast up-regulation of calcium levels, in a time-dependent manner"
same,Proportion of promastigotes in different stages of cell cycle (% ± SD) G0/G1,[9],52.3 ± 1.1 %
same,Proportion of promastigotes in different stages of cell cycle (% ± SD) M/G2,[9],26.4 ± 0.1 %
same,Proportion of promastigotes in different stages of cell cycle (% ± SD) S,[9],13.7 ± 0.7 %
same,Proportion of promastigotes in different stages of cell cycle (% ± SD) Sub G0,[9],3.0 ± 0.2 %
same,ultrastructural alterations (TEM),[10],intense swelling of the mitochondria with severe loss of cristae and matrix and concentric membranous structures inside this organelle
same,MCP-1 levels,"[11]; 60 μM, both macrophage groups",decrease this chemokine in both macrophage groups
same,TNF production,"[11]; infected macrophages at 30 and 15 μM, uninfected at 60 and 30 μM",reduced the TNF production
"C=CCc1ccc(Oc2cc([C@@H](O)C=C)cc(OC)c2OC)c(OC)c1 [1-[(7S)-hydroxy-8-propenyl]-3-[3′-methoxy-1′-(8′-propenyl)-phenoxy]-4,5-methoxybenzene]",depolarization of the mitochondrial membrane,[12],induce depolarization of the mitochondrial membrane
same,plasma membrane permeabilization,[13],plasma membrane permeabilization was verified
"CCCCCCCCCCCCCCCCOP(=O)([O-])OCC[N+](C)(C)C [Miltefosine, reference compound]",IC50,"[1]; Leishmania infantum, 96 h at 24 °C, MTT, read-out: IC50 (µM) ± SD Promastigote",5.1 ± 0.6 µM
same,IC50,"[2]; Leishmania infantum, Peritoneal macrophage",6.5 ± 3 µM
same,SI (Selectivity Index),[2]; ratio between CC50 in NCTC cells and IC50 in intracellular amastigotes,18.4
same,CC50,[14],120 ± 4.2 µM
same,Proportion of promastigotes in different stages of cell cycle (% ± SD) G0/G1,[9],36.4 ± 1.3 %
same,Proportion of promastigotes in different stages of cell cycle (% ± SD) M/G2,[9],31.4 ± 0.5 %
same,Proportion of promastigotes in different stages of cell cycle (% ± SD) S,[9],12.3 ± 0.1 %
same,Proportion of promastigotes in different stages of cell cycle (% ± SD) Sub G0,[9],10.1 ± 0.2 %
"O=C(c1ccc(OCCN2CCCCC2)cc1)c1c(-c2ccc(O)cc2)sc2cc(O)ccc12 [Raloxifene, reference compound]","plasma membrane electric potential (ΔΨp), DiSBAC2(3) fluorescence","[5]; positive control, 60 μM",caused increased levels of fluorescence
C=CCc1ccc(Oc2cc(CC=C)cc(OC)c2O)c(OC)c1 [dehydrodieugenol B],plasma membrane permeabilization,[13],plasma membrane permeabilization was verified
C/C=C/c1cc(OC)c2c(c1)[C@H](C)[C@@H](c1ccc(O)c(OC)c1)O2 [licarin A],anti-Leishmania effect and NO upregulation,Leishmania,anti-Leishmania effect without NO upregulation
eupomatenoid-5,depolarization of the mitochondrial membrane,L. (L.) amazonensis,induce depolarization of the mitochondrial membrane
